Experimental data published in patent US20140363871A1, “PROCESS FOR OBTAINING COPPER NANOPARTICLES FROM A FUNGUS SELECTED BETWEEN HYPOCREA LIXII AND TRICHODERMA KONINGIOPSIS AND USE OF FUNGI SELECTED BETWEEN HYPOCREA LIXII AND TRICHODERMA KONINGIOPSIS IN BIOREMEDIATION OF WASTEWATER AND PRODUCTION OF COPPER NANOPARTICLES” (VALE S.A., priority 2013, published 2014).

How the values were obtained:
T. koningiopsis = test: Minimum inhibitory concentration in agar medium (spot plate method); type: cell-based, Trichoderma koningiopsis; details: T. koningiopsis on SDA plates with copper 50-2000 mg L^−1, 25° C., at least 5 days
Protocol: (§1) Copper tolerance of the isolated fungus was determined as the minimum inhibitory concentration (MIC) by the spot plate method [Ahmad I, Ansari M I, Aqil F (2006) Biosorption of Ni, Cr and Cd by metal tolerante Aspergillus niger and Penicillium sp using single and multi-metal solution. Indian J Exp Biol 44: 73-76]. SDA plates containing different concentrations of copper (50 to 2000 mg L^−1) were prepared and inocula of the tested fungus were spotted onto the metal and control plates (plate without metal). The plates were incubated at 25° C. for at least 5 days. The MIC is defined as the lowest concentration of metal that inhibits visible growth of the isolate.

H. lixii = test: as above; type: cell-based, Hypocrea lixii; details: H. lixii on SDA plates with copper 50-2000 mg L^−1, 25° C., at least 5 days
Protocol: as §1

Structure (SMILES): O.O.[Cl][Cu][Cl] [copper, CuCl2.2H2O]
- minimum inhibitory concentration (MIC), tolerance to copper (T. koningiopsis): 1057 µg/mL
- minimum inhibitory concentration (MIC), tolerance to copper (H. lixii): 528 µg/mL
